Literature values, collected in paper PMC7310027, “PET imaging of soluble epoxide hydrolase in non-human primate brain with [^18F]FNDP” (EJNMMI Research, 2020).

Conditions: cited from earlier work

Q: Which BBB permeability does the source give for `CC(=O)N1CCC(NC(=O)NC23CC4CC(CC(C4)C2)C3)CC1` [AR-9281, 1-(1-Acetyl-piperidin-4-yl)-3-adamantan-1-yl-urea] here?
A: BBB-permeable
